Data from patent publication US20250302974A1, “LECTIN-DRUG CONJUGATES” (UNICHEM LABORATORIES LIMITED, priority 2021, published 2025).
Square brackets hold non-standard residues; d marks the D form. Peptide text beside a SMILES is read from it. * marks the point of attachment. Dolaproine = CO[C@@H]([C@@H]1CCCN1)[C@@H](C)C(=O)O; Dil = CC[C@H](C)[C@H](NC)[C@@H](CC(=O)O)OC; X1 = C[C@@H](N*)[C@@H](O)c1ccccc1; NMeV = CN[C@H](C(=O)O)C(C)C

Key:
[1] = system: human urinary bladder cancer cell line (T-24); assay: Cytotoxicity assay, cell titer glow luminescence, 72 h; format: cell-based; settings: 72 h
Description: (§1) T-24 Cell line were cultured in McCoy's 5a Medium Modified supplemented with 10% FBS and the PA-1 Cell line was cultured in EMEM Media supplemented with 10% FBS. The assay was performed by plating 5,000 cells/well and incubated at 37° C. overnight. […] Each concentration was added in triplicate and media-only wells used as a control. After incubation for 72 h cell titer glow (Promega) reagent (50 μL) was added to each well and the plates shaken for 5 mins and the luminescence was recorded. Percent viability was determined by dividing luminescence of the treated well by the non-treated well and multiplying by 100. Data was analysed using non-linear regression with a logarithmic scale.
(§2) 5,000 cells/well were plated and incubated at 37° C. overnight. Conjugates/vehicle control dilutions were made in respective media and added to cells. Volume added: 50 uL to each well. Starting treatment concentration was 1 uM for Conjugate of formula 16 and 18, and control SEQ ID NO: 5 alone and 10% for vehicle control (1×PBS with 20% DMA) and then diluted 10-fold down for a total of 11 treatment dilutions. Each concentration was analysed in triplicates. Media-only wells was used as a control to calculate percent viability. Cell titer glow reagent (volume: 50 uL) was added to each well, the plate was shaken for 5 mins and the luminescence was recorded. Drug Treatment Time: 72 hours. Percent viability was calculated by dividing the luminescence signal obtained for each treated well by the untreated well (media-only control) and multiplying by 100.

[2] = system: ovarian cancer cell line (PA-1); assay: as above; format: cell-based; settings: 72 h
Description: as §1, §2

[3] = system: PANC-1 cells; assay: MTT cytotoxicity assay, PANC-1 pancreatic; format: cell-based; settings: Homo sapiens
Description: (§3) The Untreated cells were used as Control. […] Cells were incubated for 3 h at 37° C. The supernatant was aspirated.
(§4) The % Cytotoxicity was calculated using the formula: […]
(§5) Selectivity Index was calculated using the formula:
(§6) SI=IC50 in Normal cell/IC50 in cancer cell.

[4] = system: U251 MG cells; assay: MTT cytotoxicity assay, U251 MG brain; format: cell-based; settings: Homo sapiens
Description: as §3, §4, §5, §6

[5] = system: T-24 cells; assay: Cytotoxicity (cell titer glo, 72 h) human urinary bladder cancer cell line T-24; format: cell-based; settings: T-24 cell line
Description: as §1
5,000 cells/well were plated and incubated at 37° C. overnight. Conjugates/vehicle control dilutions were made in respective media and added to cells. Volume added: 50 uL to each well. […] Each concentration was analysed in triplicates. […] Cell titer glow reagent (volume: 50 uL) was added to each well, the plate was shaken for 5 mins and the luminescence was recorded. […] Percent viability was calculated by dividing the luminescence signal obtained for each treated well by the untreated well (media-only control) and multiplying by 100.

[6] = system: KB cells; assay: MTT cytotoxicity assay, KB cervix; format: cell-based; settings: Homo sapiens, 48 h
Description: as §3, §4, §5, §6

[7] = system: KB Cervix; assay: Cytotoxic effect by MTT assay, 48 h; settings: for Percent cytotoxicity wrt control: KB, 48 h
Description: (§7) Cells were treated with Test Items at various concentrations (0.0001 μM-10 μM) for 48 h. The cells corresponding to Positive Control group were treated with Doxorubicin at a concentration ranging from 0.1 μM-100 μM. The Untreated cells were used as Control. After 48 h of incubation, the effect of Test Items on cytotoxicity of cells was determined by MTT assay, the plates were taken out and 20 μl of 5 mg/m1 of MTT 3-(4,5-dimethythiazol-2-yl)-2,5-diphenyl tetrazolium bromide solution was added to all the wells. Cells were incubated for 3 h at 37° C. The supernatant was aspirated. 150 μl of DMSO was added to each well to dissolve formazan crystals. The absorbance of each well was then read at 540 nm using Synergy HT micro plate reader.
(§8) The % Cytotoxicity was calculated using the formula:
(§9) Where, X=Absorbance of cells treated with Test Item; R=Absorbance of Control cells (Untreated cells maintained in growth medium only).
as §5, §6
(§10) Activity scores of the Selective Index values were categorized as: • Not selective (SI value ≤1) • Moderately selective (1<SI value <5) • Selective (SI value ≥5)

[8] = system: T24 Bladder; assay: Cytotoxic effect by MTT assay, 48 h; settings: 48 h
Description: as §7, §8, §9, §5, §6, §10

[9] = system: AGS Stomach; assay: Cytotoxic effect by MTT assay, 48 h; settings: read-out: IC50 Values; AGS Stomach, after 48 h of treatment
Description: as §7, §8, §9, §5, §6, §10

[10] = system: PA-1 Ovary; assay: Cytotoxic effect by MTT assay, 48 h; settings: for Percent cytotoxicity wrt control: 48 h
Description: as §7, §8, §9, §5, §6, §10

[11] = system: MG-63 Bone; assay: Cytotoxic effect by MTT assay, 48 h; settings: for Percent cytotoxicity wrt control: 48 h
Description: as §7, §8, §9, §5, §6, §10

[12] = system: MDA-MB-231 Breast; assay: Cytotoxic effect by MTT assay, 48 h; settings: read-out: IC50 Values; MDA-MB-231 Breast, after 48 h of treatment
Description: as §7, §8, §9, §5, §6, §10

[13] = system: PANC-1 Pancreatic; assay: Cytotoxic effect by MTT assay, 48 h; settings: for Percent cytotoxicity wrt control: 48 h
Description: as §7, §8, §9, §5, §6, §10

[14] = system: HT29 Colon; assay: Cytotoxic effect by MTT assay, 48 h; settings: read-out: IC50 Values; HT29 Colon, after 48 h of treatment
Description: as §7, §8, §9, §5, §6, §10

[15] = system: A549 Lungs; assay: Cytotoxic effect by MTT assay, 48 h; settings: for Percent cytotoxicity wrt control: 48 h
Description: as §7, §8, §9, §5, §6, §10

CC[C@H](C)[C@@H]([C@@H](CC(=O)N1CCC[C@H]1[C@H](OC)[C@@H](C)C(=O)N[C@H](C)[C@@H](O)c1ccccc1)OC)N(C)C(=O)[C@@H](NC(=O)[C@@H](NC)C(C)C)C(C)C [MMAE, monomethyl auristatin E] (H-[NMeV]V[Dil][Dolaproine]-X1)
IC50 [1]: 0.24 nM
IC50 [2]: 3.23 nM
IC50 ([3]; PANC-1, 48 h): 1.5 nM
cytotoxicity at 0.0001 µM ([3]; PANC-1, 0.0001 μm, 48 h, read-out: Percent cytotoxicity wrt control): 38.1%
cytotoxicity at 0.001 µM ([3]; PANC-1, 0.001 μm, 48 h, read-out: Percent cytotoxicity wrt control): 41%
cytotoxicity at 0.01 µM ([3]; PANC-1, 0.01 μm, 48 h, read-out: Percent cytotoxicity wrt control): 64.1%
cytotoxicity at 0.1 µM ([3]; PANC-1, 0.1 μm, 48 h, read-out: Percent cytotoxicity wrt control): 67.7%
cytotoxicity at 1 µM ([3]; PANC-1, 1 μm, 48 h, read-out: Percent cytotoxicity wrt control): 77.1%
cytotoxicity at 10 µM ([3]; PANC-1, 10 μm, 48 h, read-out: Percent cytotoxicity wrt control): 69.7%
cytotoxicity at 0.0001 µM ([4]; U-251, 0.0001 μm, 48 h, read-out: Percent cytotoxicity wrt control): 77.8%
cytotoxicity at 0.001 µM ([4]; U-251, 0.001 μm, 48 h, read-out: Percent cytotoxicity wrt control): 52.5%
cytotoxicity at 0.01 µM ([4]; U-251, 0.01 μm, 48 h, read-out: Percent cytotoxicity wrt control): 58.6%
cytotoxicity at 0.1 µM ([4]; U-251, 0.1 μm, 48 h, read-out: Percent cytotoxicity wrt control): 63.1%
cytotoxicity at 1 µM ([4]; U-251, 1 μm, 48 h, read-out: Percent cytotoxicity wrt control): 64.7%
cytotoxicity at 10 µM ([4]; U-251, 10 μm, 48 h, read-out: Percent cytotoxicity wrt control): 71%
IC50 ([4]; U-251, 48 h): 0.2 nM
IC50 [5]: 0.24 nM
cytotoxicity at 0.0001 µM ([6]; 0.0001 μm, read-out: Percent cytotoxicity wrt control): 90.5%
cytotoxicity at 0.001 µM ([6]; 0.001 μm, read-out: Percent cytotoxicity wrt control): 95.8%
cytotoxicity at 0.01 µM ([6]; 0.01 μm, read-out: Percent cytotoxicity wrt control): 96.1%
cytotoxicity at 0.1 µM ([6]; 0.1 μm, read-out: Percent cytotoxicity wrt control): 96.3%
cytotoxicity at 1 µM ([6]; 1 μm, read-out: Percent cytotoxicity wrt control): 96.2%
cytotoxicity at 10 µM ([6]; 10 μm, read-out: Percent cytotoxicity wrt control): 96.3%
IC50 [6]: 0.1 nM
Percent cytotoxicity wrt control ([7]; 0.0001 μM): 90.5%
Percent cytotoxicity wrt control ([7]; 0.01 μM): 96.1%
Percent cytotoxicity wrt control ([7]; 0.1 μM): 96.3%
Percent cytotoxicity wrt control ([7]; 1 μM): 96.2%
Percent cytotoxicity wrt control ([7]; 10 μM): 96.3%
IC50 ([7]; read-out: IC50 Values, KB Cervix, after 48 h of treatment): ≤ 0.1 nM
Percent cytotoxicity wrt control ([8]; T24, 0.0001 μM): 51.8%
Percent cytotoxicity wrt control ([8]; T24, 0.001 μM): 51.1%
Percent cytotoxicity wrt control ([8]; T24, 0.1 μM): 44.4%
Percent cytotoxicity wrt control ([8]; T24, 1 μM): 44.4%
IC50 [9]: 1540 nM
Percent cytotoxicity wrt control ([10]; PA-1, 0.0001 μM): 13.4%
Percent cytotoxicity wrt control ([10]; PA-1, 0.001 μM): 57.5%
Percent cytotoxicity wrt control ([10]; PA-1, 0.01 μM): 50%
Percent cytotoxicity wrt control ([10]; PA-1, 0.1 μM): 57.5%
Percent cytotoxicity wrt control ([10]; PA-1, 1 μM): 61.7%
Percent cytotoxicity wrt control ([10]; PA-1, 10 μM): 58.3%
IC50 ([10]; read-out: IC50 Values, PA-1 Ovary, after 48 h of treatment): 30.1 nM
Percent cytotoxicity wrt control ([11]; MG-63, 0.0001 μM): 81.7%
Percent cytotoxicity wrt control ([11]; MG-63, 0.001 μM): 85.5%
Percent cytotoxicity wrt control ([11]; MG-63, 0.01 μM): 86.2%
Percent cytotoxicity wrt control ([11]; MG-63, 0.1 μM): 87.4%
Percent cytotoxicity wrt control ([11]; MG-63, 1 μM): 85.3%
Percent cytotoxicity wrt control ([11]; MG-63, 10 μM): 82.3%
IC50 ([11]; read-out: IC50 Values, MG-63 Bone, after 48 h of treatment): ≤ 0.1 nM
IC50 [12]: > 10000 nM
Percent cytotoxicity wrt control ([13]; PANC-1, 0.0001 μM): 38.1%
Percent cytotoxicity wrt control ([13]; PANC-1, 0.001 μM): 41%
Percent cytotoxicity wrt control ([13]; PANC-1, 0.01 μM): 64.1%
Percent cytotoxicity wrt control ([13]; PANC-1, 0.1 μM): 67.7%
Percent cytotoxicity wrt control ([13]; PANC-1, 10 μM): 69.7%
IC50 ([13]; read-out: IC50 Values, PANC-1 Pancreatic, after 48 h of treatment): 1.5 nM
IC50 [14]: 50 nM
Percent cytotoxicity wrt control ([15]; A549, 0.0001 μM): 27.9%
Percent cytotoxicity wrt control ([15]; A549, 0.001 μM): 39.3%
Percent cytotoxicity wrt control ([15]; A549, 0.1 μM): 58.8%
Percent cytotoxicity wrt control ([15]; A549, 1 μM): 83.6%
Percent cytotoxicity wrt control ([15]; A549, 10 μM): 75.8%
IC50 ([15]; read-out: IC50 Values, A549 Lungs, after 48 h of treatment): 10 nM
